Columns and labels:
3T3-L1 adipocytes = experiment: Oil-Red O staining of intracellular fat in differentiated adipocytes; format: cell-based; conditions: differentiated 3T3-L1 adipocytes, 0.01-10 mM, 10 days
Procedure: 3T3-L1 adipocytes were purchased from Korean Cell Line Bank. For the culture and maintenance of 3T3-L1 adipocytes, the cells were subcultured in Dulbecco's modified Eagle's medium (DMEM, Welgene, Korea) supplemented with 10% bovin calf serum (FCS, Welgene, Korea) in a 5% CO2 incubator at 37° C. 3T3-L1 adipocytes were divided into six groups as follows: NT; Normal differentiated cell group (control group), sialyllactose test group; 1, 10, 100, 1000, and 10000 μM test groups treated with sialyllactose (SL, Sigma-Aldrich, USA). For cell differentiation, the cells were dispensed in 6-well plates at a density of 2×10^5 cells per well, and grown to 100% confluency. […]
After differentiation in 6-well plates, 3T3-L1 adipocytes treated with […] or 6’-sialyllactose were washed two times with PBS, and then 2 ml of 10% formalin (Sigma-Aldrich, USA) was added thereto to fix the adipocytes at room temperature for 10 minutes. […] Thereafter, 1 ml of 100% isopropanol (Sigma-Aldrich, USA) was added to effuse stained adipocytes, and then the amount of accumulated fat was measured using absorbance at 500 nm.

high-fat diet mice = experiment: Subcutaneous fat changes of high-fat diet mice by subcutaneous injection; format: in vivo, mouse; conditions: 0.5 ml of 100 mM, subcutaneous injection day 0 and day 4; observed day 4 and 7
Procedure: 4-Week-old C56BL/6 mice were purchased from Dooyeul Biotech (Korea). Water was freely accessible, and a commercially available pellet feed (Dooyeul Biotech, Korea) was given for one week. A high-fact (60% fat) diet purchased from Research Diets (New Brunswick, U.S.A) was supplied for 28 days to construct fat-accumulated mice.
0.5 ml of 100 mM 3′-siallylactose or 6′-siallylactose dissolved in a phosphate buffer was subcutaneously injected two times (day 0 and day 4) into four to five sites of the dorsal region of the mouse having fat accumulation induced by a high-fat diet. On day 4 and 7, the skin was observed by the naked eye and dermoscopy. A phosphate buffer was used as a control group (CTL).

CC(=O)N[C@H]1[C@H]([C@H](O)[C@H](O)CO)O[C@@](OC[C@H]2O[C@@H](O[C@H]3[C@H](O)[C@@H](O)[C@H](O)O[C@@H]3CO)[C@H](O)[C@@H](O)[C@H]2O)(C(=O)O)C[C@@H]1O [6′-SL, α-NeuNAc-(2→6)-β-D-Gal-(1→4)-D-Glc]
intracellular fat (Oil Red O) (3T3-L1 adipocytes; listed as 6′-siallylactose): greatly reduced
intracellular fat (Oil Red O) (3T3-L1 adipocytes; listed as 6′-sialyllactose): significantly reduced intracellular fat
subcutaneous fat (naked eye and dermoscopy) (high-fat diet mice): greatly reduced subcutaneous fat

Source: patent publication US20190030053A1, “COMPOSITION FOR INCREASING EXPRESSION OF PGC-1alpha” (BENEBIOSIS CO., LTD., priority 2016, published 2019)
